# Key:
# MAGL [1] = target: MAGL (Homo sapiens (Human), UniProt Q99685); experiment: In vitro competitive activity-based protein profiling, human proteomes (prefrontal cortex or PC3 cell membrane fractions); assay type: biochemical; conditions: 1 μM, human proteome; read-out: MAGL % inh. 1 μM (human)
# How it was run: (§1)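 Activity of MAGL and FAAH was quantified from fluorescent gel band intensities. Beforehand, inhibitors at several concentrations competed against subsequent probe labelling (FP-Rh, JW912 or HT-01) in species-matched proteomes, each step 30 min at 37° C.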
# FAAH [2] = target: FAAH (Homo sapiens (Human), UniProt O00519); experiment: as above; assay type: biochemical; conditions: 1 μM, human proteome; read-out: FAAH % inh. 1 μM (human)
# Chain of FAAH (Homo sapiens (Human), UniProt O00519) (O00519 whole entry): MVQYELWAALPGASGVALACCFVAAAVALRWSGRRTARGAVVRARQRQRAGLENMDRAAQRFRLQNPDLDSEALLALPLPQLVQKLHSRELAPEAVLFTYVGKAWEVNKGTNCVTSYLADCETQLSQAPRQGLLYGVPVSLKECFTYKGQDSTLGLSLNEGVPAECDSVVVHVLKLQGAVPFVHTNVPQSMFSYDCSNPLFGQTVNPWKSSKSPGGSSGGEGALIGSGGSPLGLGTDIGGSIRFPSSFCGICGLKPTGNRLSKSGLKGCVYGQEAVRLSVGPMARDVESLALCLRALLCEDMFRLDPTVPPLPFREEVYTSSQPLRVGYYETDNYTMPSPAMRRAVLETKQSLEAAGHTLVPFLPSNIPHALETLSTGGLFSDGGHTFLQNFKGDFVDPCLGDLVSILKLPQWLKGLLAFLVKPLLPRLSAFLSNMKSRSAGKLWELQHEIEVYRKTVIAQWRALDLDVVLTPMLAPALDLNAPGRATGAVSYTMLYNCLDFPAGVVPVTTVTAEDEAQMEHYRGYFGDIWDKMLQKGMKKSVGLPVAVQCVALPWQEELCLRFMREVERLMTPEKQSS
# How it was run: as §1
# MAGL [3] = target: T1, MAGL (Mus musculus (Mouse), UniProt O35678); experiment: Mouse brain proteomes from inhibitor treated mice (oral gavage, sacrificed 4 h after administration); assay type: in vivo; conditions: 5 mg/kg oral gavage
# T1 sequence (O35678 whole entry): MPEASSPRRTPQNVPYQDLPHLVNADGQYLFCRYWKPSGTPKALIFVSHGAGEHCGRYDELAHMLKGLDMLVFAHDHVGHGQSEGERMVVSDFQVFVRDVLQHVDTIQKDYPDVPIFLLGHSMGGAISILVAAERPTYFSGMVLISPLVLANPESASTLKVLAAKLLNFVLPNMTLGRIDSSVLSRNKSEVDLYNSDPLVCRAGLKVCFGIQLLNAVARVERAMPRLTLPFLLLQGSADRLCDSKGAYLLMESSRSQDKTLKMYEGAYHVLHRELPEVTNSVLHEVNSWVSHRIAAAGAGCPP
# Procedure: (§2) Preparation of Mouse Brain Proteomes from Inhibitor Treated Mice.
# (§3) Inhibitors were administered to wild-type C57B1/6J by oral gavage in a vehicle of polyethylene glycol. Each animal was sacrificed 4 h following administration and brain proteomes were prepared and analyzed according to previously established methods (See Niphakis, M. J., et al. (2011) ACS Chem. Neurosci. and Long, J. Z., et al. Nat. Chem. Biol. 5:37-44).
# FAAH [4] = target: T2, FAAH (Mus musculus (Mouse), UniProt O08914); experiment: as above; assay type: in vivo; conditions: 5 mg/kg oral gavage
# T2 sequence (O08914 whole entry): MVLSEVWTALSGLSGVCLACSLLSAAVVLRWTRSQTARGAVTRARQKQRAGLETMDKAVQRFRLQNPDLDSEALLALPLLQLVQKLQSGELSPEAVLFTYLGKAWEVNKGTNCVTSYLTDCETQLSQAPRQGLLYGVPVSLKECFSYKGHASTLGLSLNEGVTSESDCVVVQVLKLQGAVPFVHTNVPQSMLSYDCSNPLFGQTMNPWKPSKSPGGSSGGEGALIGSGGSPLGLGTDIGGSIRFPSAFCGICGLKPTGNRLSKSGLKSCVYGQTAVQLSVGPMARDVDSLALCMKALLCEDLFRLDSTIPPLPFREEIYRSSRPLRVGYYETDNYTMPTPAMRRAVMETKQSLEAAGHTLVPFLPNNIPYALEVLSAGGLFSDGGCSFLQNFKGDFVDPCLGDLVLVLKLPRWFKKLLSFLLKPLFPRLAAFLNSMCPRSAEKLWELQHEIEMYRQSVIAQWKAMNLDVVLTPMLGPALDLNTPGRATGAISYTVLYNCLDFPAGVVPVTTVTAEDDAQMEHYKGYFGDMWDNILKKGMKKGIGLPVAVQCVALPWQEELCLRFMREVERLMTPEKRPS
# Procedure: as §2, §3
# MAGL [5] = target: T1, MAGL; experiment: In vitro competitive activity-based protein profiling, mouse proteomes (brain membrane fraction or cell lysates); assay type: biochemical; conditions: mouse proteome, read-out: MAGL % inh. 1 μM (mouse)
# How it was run: as §1
# FAAH [6] = target: T2, FAAH; experiment: as above; assay type: biochemical; conditions: mouse proteome, read-out: FAAH % inh. 1 μM (mouse)
# How it was run: as §1
# Chain of MAGL (Homo sapiens (Human), UniProt Q99685) (Q99685 whole entry): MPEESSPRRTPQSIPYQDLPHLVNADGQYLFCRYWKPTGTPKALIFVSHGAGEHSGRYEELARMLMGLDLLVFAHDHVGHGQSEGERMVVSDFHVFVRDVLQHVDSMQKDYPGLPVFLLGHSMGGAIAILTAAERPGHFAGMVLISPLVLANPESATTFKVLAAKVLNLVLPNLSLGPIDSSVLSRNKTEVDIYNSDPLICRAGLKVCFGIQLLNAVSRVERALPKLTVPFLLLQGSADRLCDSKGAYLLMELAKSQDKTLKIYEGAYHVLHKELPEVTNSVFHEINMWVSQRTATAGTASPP
inhibition at 1 µM (MAGL [1]) [%],inhibition at 1 µM (FAAH [2]) [%],inhibition at 1 µM (MAGL [5]) [%],inhibition at 1 µM (FAAH [6]) [%],SMILES,MAGL % inh. 5 mg/kg (mouse) (MAGL [3]),FAAH % inh. 5 mg/kg (mouse) (FAAH [4])
> 75,0 to 25,> 75,0 to 25,"CC1CN(C(=O)n2ccc(NS(C)(=O)=O)n2)CCN1Cc1ccc(C(F)(F)F)c(N2CCC(F)CC2)c1 (stereo not drawn) [Example 141, N-(1-(4-(3-(4-Fluoropiperidin-1-yl)-4-(trifluoromethyl)benzyl)-3-methylpiperazine-1-carbonyl)-1H-pyrazol-3-yl)methanesulfonamide]",A (% inhibition is greater than or equal to 75%),D (% inhibition is greater than or equal to 0% and less than 25%)
> 75,0 to 25,> 75,0 to 25,"C[C@H]1CN(Cc2ccc(Cl)c(N3CCC(F)CC3)c2)CCN1C(=O)n1ccc(NS(C)(=O)=O)n1 [Example 136, (S)-N-(1-(4-(4-Chloro-3-(4-fluoropiperidin-1-yl)benzyl)-2-methylpiperazine-1-carbonyl)-1H-pyrazol-3-yl)methanesulfonamide]",A (% inhibition is greater than or equal to 75%),D (% inhibition is greater than or equal to 0% and less than 25%)
